Data: the CheMixHub viscosity set

Test: xn = mol fraction of the nth substance listed

O=[N+]([O-])c1ccccc1 + CCO
viscosity [mPa·s], 101.33 kPa
Conditions	x1 = 0.0399	x1 = 0.0856	x1 = 0.1382	x1 = 0.1997	x1 = 0.2723	x1 = 0.3595	x1 = 0.4661	x1 = 0.5995	x1 = 0.7711
298.15 K	1.06	1.048	1.061	1.073	1.116	1.166	1.201	1.317	1.44
303.15 K	0.9662	0.9579	0.9691	0.9809	1.01	1.068	1.085	1.207	1.312

CCCCCCCCCCCCCC + C1CCCCC1
298.15 K, 101.33 kPa
Conditions	viscosity [mPa·s]
x1 = 0.0144	0.9238
x2 = 0.1743	1.907
x2 = 0.3074	1.756
x2 = 0.4253	1.621
x2 = 0.5304	1.486
x2 = 0.6125	1.384
x2 = 0.6841	1.291
x2 = 0.7505	1.207
x2 = 0.8066	1.131
x2 = 0.8651	1.064
x2 = 0.9088	1.01
x2 = 0.9483	0.9646

CCCCCO + c1ccccc1
Conditions	viscosity [mPa·s]
293.15 K, 101.33 kPa, x1 = 0.0659	0.671
293.15 K, 101.33 kPa, x1 = 0.1351	0.715
293.15 K, 101.33 kPa, x1 = 0.218	0.791
293.15 K, 101.33 kPa, x1 = 0.2928	0.876
293.15 K, 101.33 kPa, x1 = 0.4304	1.127
293.15 K, 101.33 kPa, x1 = 0.5061	1.307
293.15 K, 101.33 kPa, x1 = 0.58	1.532
293.15 K, 101.33 kPa, x1 = 0.6971	2.016
293.15 K, 101.33 kPa, x1 = 0.729	2.159
293.15 K, 101.33 kPa, x1 = 0.8032	2.568
293.15 K, 101.33 kPa, x1 = 0.8704	3.014
293.15 K, 101.33 kPa, x1 = 0.9454	3.594
298.15 K, 101 kPa, x1 = 0.04	0.616
298.15 K, 101 kPa, x1 = 0.09	0.641
298.15 K, 101 kPa, x1 = 0.14	0.669
298.15 K, 101 kPa, x1 = 0.18	0.709
298.15 K, 101 kPa, x1 = 0.37	0.936
298.15 K, 101 kPa, x1 = 0.47	1.132
298.15 K, 101 kPa, x1 = 0.57	1.36
298.15 K, 101 kPa, x1 = 0.78	1.963

ClC(Cl)=C(Cl)Cl + CC(C)CCO
303.15 K, 101.33 kPa
Conditions	viscosity [mPa·s]
x1 = 0.0975	2.635
x1 = 0.2467	2.045
x1 = 0.3283	1.773
x1 = 0.4163	1.524
x1 = 0.5256	1.293
x1 = 0.6182	1.148
x1 = 0.7334	1.013
x1 = 0.8214	0.934
x1 = 0.9161	0.864

C1CCC2CCCCC2C1 (stereo not drawn) + CC12CC3CC(C1)CC(C)(C3)C2
viscosity [mPa·s], 100 kPa
Conditions	x2 = 0.1034	x2 = 0.2043	x2 = 0.305	x2 = 0.4034	x2 = 0.5024	x2 = 0.6048	x2 = 0.7046	x2 = 0.8094	x2 = 0.9013
293.15 K	2.607	2.713	2.812	2.919	3.039	3.167	3.31	3.465	3.622
298.15 K	2.361	2.449	2.53	2.628	2.728	2.844	2.967	3.102	3.237
303.15 K	2.148	2.227	2.299	2.384	2.468	2.57	2.675	2.799	2.909
313.15 K	1.802	1.86	1.917	1.98	2.046	2.125	2.206	2.298	2.385
323.15 K	1.505	1.547	1.592	1.641	1.697	1.759	1.825	1.902	1.974

O=[N+]([O-])c1ccccc1 + CS(C)=O
viscosity [mPa·s], 101 kPa
Conditions	x2 = 0.1	x2 = 0.2	x2 = 0.3	x2 = 0.4	x2 = 0.5	x2 = 0.6	x2 = 0.7	x2 = 0.8	x2 = 0.9
298.15 K	1.851	1.877	1.903	1.927	1.946	1.962	1.975	1.985	1.993
308.15 K	1.569	1.586	1.605	1.623	1.639	1.653	1.662	1.665	1.664
318.15 K	1.333	1.349	1.353	1.377	1.388	1.396	1.402	1.403	1.4

CCCCCCC + CCO
Conditions	viscosity [mPa·s]
293.15 K, 101 kPa, x1 = 0.1005	0.9853
293.15 K, 101 kPa, x1 = 0.202	0.8256
293.15 K, 101 kPa, x1 = 0.3022	0.7149
293.15 K, 101 kPa, x1 = 0.4016	0.6285
293.15 K, 101 kPa, x1 = 0.5079	0.567
293.15 K, 101 kPa, x1 = 0.5967	0.516
293.15 K, 101 kPa, x1 = 0.7041	0.4658
293.15 K, 101 kPa, x1 = 0.8008	0.4428
293.15 K, 101 kPa, x1 = 0.8935	0.423
298.15 K, 100 kPa, x1 = 0.0472	1.002
298.15 K, 100 kPa, x1 = 0.1004	0.9149
298.15 K, 100 kPa, x1 = 0.199	0.7776
298.15 K, 100 kPa, x1 = 0.3003	0.6663
298.15 K, 100 kPa, x1 = 0.3994	0.5825
298.15 K, 100 kPa, x1 = 0.507	0.5154
298.15 K, 100 kPa, x1 = 0.5988	0.4742
298.15 K, 100 kPa, x1 = 0.6751	0.449
298.15 K, 100 kPa, x1 = 0.7394	0.4327
298.15 K, 100 kPa, x1 = 0.8085	0.4191
298.15 K, 100 kPa, x1 = 0.9003	0.4048
298.15 K, 101 kPa, x1 = 0.1005	0.9069
298.15 K, 101 kPa, x1 = 0.202	0.7656
298.15 K, 101 kPa, x1 = 0.3022	0.6673
298.15 K, 101 kPa, x1 = 0.4016	0.5856
298.15 K, 101 kPa, x1 = 0.5079	0.5214
298.15 K, 101 kPa, x1 = 0.5967	0.4815
298.15 K, 101 kPa, x1 = 0.7041	0.4422
298.15 K, 101 kPa, x1 = 0.8008	0.4149
298.15 K, 101 kPa, x1 = 0.8935	0.4021
298.15 K, 101.33 kPa, x2 = 0.0831	0.413
298.15 K, 101.33 kPa, x2 = 0.1075	0.394
298.15 K, 101.33 kPa, x2 = 0.1985	0.426
298.15 K, 101.33 kPa, x2 = 0.1999	0.408
298.15 K, 101.33 kPa, x2 = 0.2981	0.444
298.15 K, 101.33 kPa, x2 = 0.3001	0.433
298.15 K, 101.33 kPa, x2 = 0.3932	0.465
298.15 K, 101.33 kPa, x2 = 0.4315	0.487
298.15 K, 101.33 kPa, x2 = 0.5009	0.517
298.15 K, 101.33 kPa, x2 = 0.5079	0.521
298.15 K, 101.33 kPa, x2 = 0.5973	0.584
298.15 K, 101.33 kPa, x2 = 0.6092	0.584
298.15 K, 101.33 kPa, x2 = 0.7009	0.653
298.15 K, 101.33 kPa, x2 = 0.7209	0.69
298.15 K, 101.33 kPa, x2 = 0.8165	0.766
298.15 K, 101.33 kPa, x2 = 0.8241	0.808
298.15 K, 101.33 kPa, x2 = 0.9	0.883
298.15 K, 101.33 kPa, x2 = 0.907	0.922
298.15 K, 101.33 kPa, x2 = 0.9744	1.039
303 K, 101.33 kPa, x2 = 0.3521	0.43
303 K, 101.33 kPa, x2 = 0.5917	0.566
303 K, 101.33 kPa, x2 = 0.7654	0.698
303 K, 101.33 kPa, x2 = 0.8969	0.863
303.15 K, 101 kPa, x1 = 0.1005	0.8186
303.15 K, 101 kPa, x1 = 0.202	0.695
303.15 K, 101 kPa, x1 = 0.3022	0.6164
303.15 K, 101 kPa, x1 = 0.4016	0.5429
303.15 K, 101 kPa, x1 = 0.5079	0.4865
303.15 K, 101 kPa, x1 = 0.5967	0.4506
303.15 K, 101 kPa, x1 = 0.7041	0.4154
303.15 K, 101 kPa, x1 = 0.8008	0.3953
303.15 K, 101 kPa, x1 = 0.8935	0.3827
308.15 K, 101 kPa, x1 = 0.1005	0.7535
308.15 K, 101 kPa, x1 = 0.202	0.6432
308.15 K, 101 kPa, x1 = 0.3022	0.5695
308.15 K, 101 kPa, x1 = 0.4016	0.5077
308.15 K, 101 kPa, x1 = 0.5079	0.4521
308.15 K, 101 kPa, x1 = 0.5967	0.4271
308.15 K, 101 kPa, x1 = 0.7041	0.3957
308.15 K, 101 kPa, x1 = 0.8008	0.3691
308.15 K, 101 kPa, x1 = 0.8935	0.3633
313 K, 101.33 kPa, x2 = 0.3521	0.38
313 K, 101.33 kPa, x2 = 0.5917	0.483
313 K, 101.33 kPa, x2 = 0.7654	0.587
313 K, 101.33 kPa, x2 = 0.8969	0.719
323 K, 101.33 kPa, x2 = 0.3521	0.337
323 K, 101.33 kPa, x2 = 0.5917	0.417
323 K, 101.33 kPa, x2 = 0.7654	0.5
323 K, 101.33 kPa, x2 = 0.8969	0.606

CCCCCCCCCCCCCC + CC(C)CC(C)(C)C
298.15 K, 101 kPa
Conditions	viscosity [mPa·s]
x2 = 0.1084	1.813
x2 = 0.1551	1.724
x2 = 0.1801	1.702
x2 = 0.2807	1.483
x2 = 0.4042	1.265
x2 = 0.5162	1.086
x2 = 0.6304	0.9193
x2 = 0.7095	0.8085
x2 = 0.7868	0.7168
x2 = 0.8111	0.6841
x2 = 0.8616	0.6216
x2 = 0.9166	0.5603
x2 = 0.9516	0.5263
x2 = 0.9768	0.5023
